Common to all, as to test: MIC by broth microdilution (NCCLS M7-A5)
On the technique in general: In broth dilution the organism is exposed to a series of concentrations in liquid medium.

Test [1] deals with Enterobacter aerogenes Zayakosky. As to conditions: for MIC of antibiotic: Enterobacter aerogenes Zayakosky 5.
Test [2] deals with Enterobacter aerogenes B1. As to conditions: E. aerogenes B1; + compound 323 and sulbactam, 4 mg/L each.
For a further test, the system named is Acinetobacter sp. J2. As to conditions: Acinetobacter baumannii J2.
Test [3] has as its system Pseudomonas aeruginosa MK1184.
Test [4] deals with Pseudomonas aeruginosa 1973E.
For test [5], the system named is Klebsiella pneumoniae CF104.
In another test the test system is Serratia marcescens S6.
Test [6] concerns Stenotrophomonas malthophilia 1AC736. As to conditions: Stenotrophomonas maltophilia 1AC736.
In test [7] the test system is Acinetobacter baumannii J51. The class given is cell-based. The procedure: Antimicrobial activity of the compounds and of their combinations was determined against a selection of organisms according to the standard procedures described by the National Committee for Clinical Laboratory Standards (National Committee for Clinical Laboratory. Standards (2000). Methods for Dilution Antimicrobial Susceptibility Tests for Bacteria That Grow Aerobically-Fifth Edition: Approved Standard M7-A5. NCCLS, Wayne, Pa., USA).
In all cases the final concentration of DMSO incubated with the bacteria is less than or equal to 1%. […] Plates were incubated overnight at an appropriate temperature (30° C. or 37° C.) and optical densities assessed by eye. The MIC value is defined as the lowest compound concentration completely inhibiting visible growth of the test organism. When combinations between compounds of formula I with compounds of formula II and are evaluated the compounds of formula I are tested in dilution series as described above while the compounds of formula II and III-XIII were present in all wells at a constant concentration of 4 μg/mL each.

A further test deals with Enterobacter cloacae P99.
Setting [8] is: + 102 + clavulanate, 4 mg/L each.
Where [9] appears, read: + 324 + clavulanate, 4 mg/L each.

Turning to `C[C@H]1[C@H](NC(=O)/C(=N\OC(C)(C)C(=O)O)c2csc(N)n2)C(=O)N1S(=O)(=O)O` [Aztreonam, aztreonam, reference compound], the “Minimal Inhibitory Concentration of antibiotic” value in test [1] (E. aerogenes Zayakosky, + compound 323 and sulbactam, 4 mg/L each) is 8 mg/L; in test [2], 8 mg/L. Besides, the MIC of antibiotic in the test with Acinetobacter sp. J2 (setting [8]) worked out at 16 µg/mL; in the test with Acinetobacter sp. J2 (+ 102 + sulbactam, 4 mg/L each), 4 µg/mL; in [3] (+ 102 + sulbactam, 4 mg/L each) it was 16 µg/mL; in test [4] (setting [8]) it was 8 µg/mL; in test [4] (+ 102 + sulbactam, 4 mg/L each), 4 µg/mL; in test [5] (setting [8]), 0.5 µg/mL. Further, the MIC of antibiotic in test [5] (+ 102 + sulbactam, 4 mg/L each) stood at 1 µg/mL; with Serratia marcescens S6 (setting [8]), 2 µg/mL; with Serratia marcescens S6 (+ 102 + sulbactam, 4 mg/L each) it was 2 µg/mL; in test [6] (setting [8]) it was 4 µg/mL; in [6] (+ 102 + sulbactam, 4 mg/L each), 8 µg/mL.
For `CC1(C)[C@H](NC(=O)/C(=N\OCc2cc(=O)c(O)cn2O)c2csc(N)n2)C(=O)N1OS(=O)(=O)O` [Compound 26, (3S)-3-{(2Z)-2-(2-amino(1,3-thiazol-4-yl))-3-[(1,5-dihydroxy-4-oxo(2-hydropyridyl))methoxy]-3-azaprop-2-enoylamino}-4,4-dimethyl-2-oxoazetidinyl hydroxysulfonate], the MIC of antibiotic in test [7] (+ 324 4 mg/L) was 2 µg/mL; in test [7] (+ BRL427158 4 mg/L) it was 32 µg/mL; in test [7] (+ clavulanic acid 4 mg/L), 1 µg/mL; in [7] (antibiotic alone) it was 4 µg/mL; in test [1] (+ 324 4 mg/L), 4 µg/mL; in test [1] (+ BRL427158 4 mg/L), 0.5 µg/mL. Besides, the MIC of antibiotic is 8 µg/mL in [1] (+ clavulanic acid 4 mg/L); 16 µg/mL in [1] (antibiotic alone); 4 µg/mL in the test with Acinetobacter sp. J2 (+ 324 4 mg/L); 2 µg/mL in the test with Acinetobacter sp. J2 (+ 324 + sulbactam, 4 mg/L each); 0.5 µg/mL in the test with Acinetobacter sp. J2 (+ BRL427158 4 mg/L); greater than 32 µg/mL in the test with Acinetobacter sp. J2 (+ clavulanate 4 mg/L). Besides, the MIC of antibiotic with Acinetobacter sp. J2 (antibiotic alone) came to 4 µg/mL; in test [3] (+ 324 4 mg/L), 4 µg/mL; in [3] (+ 324 + sulbactam, 4 mg/L each), 2 µg/mL; in test [3] (+ BRL427158 4 mg/L), 2 µg/mL; in test [3] (+ clavulanate 4 mg/L), 4 µg/mL; in test [3] (antibiotic alone) it was 2 µg/mL. The MIC of antibiotic came to 4 µg/mL in [4] (+ 324 4 mg/L); 2 µg/mL in [4] (+ 324 + sulbactam, 4 mg/L each); 2 µg/mL in test [4] (+ BRL427158 4 mg/L); 2 µg/mL in test [4] (+ clavulanate 4 mg/L); 16 µg/mL in [4] (antibiotic alone); 2 µg/mL in the test on Enterobacter cloacae P99 (+ 324 4 mg/L). Further, the MIC of antibiotic in the test with Enterobacter cloacae P99 (+ 324 + sulbactam, 4 mg/L each) is 2 µg/mL; in the test on Enterobacter cloacae P99 (+ BRL427158 4 mg/L) it was 2 µg/mL; with Enterobacter cloacae P99 (+ clavulanate 4 mg/L), 8 µg/mL; in the test with Enterobacter cloacae P99 (antibiotic alone), 16 µg/mL; in [5] (+ 324 4 mg/L), 16 µg/mL; in test [5] (+ 324 + sulbactam, 4 mg/L each), 1 µg/mL. In addition, the MIC of antibiotic was 0.125 µg/mL in test [5] (+ BRL427158 4 mg/L); 0.5 µg/mL in test [5] (+ clavulanate 4 mg/L); 32 µg/mL in test [5] (antibiotic alone); “≦0.06 mg/L” in the test with Serratia marcescens S6 (+ 324 4 mg/L); less than 0.06 µg/mL with Serratia marcescens S6 (+ 324 + sulbactam, 4 mg/L each); “≦0.06 mg/L” in the test with Serratia marcescens S6 (+ BRL427158 4 mg/L). The MIC of antibiotic result in the test on Serratia marcescens S6 (+ clavulanate 4 mg/L) is “≦0.06 mg/L”; in the test on Serratia marcescens S6 (antibiotic alone), less than 0.06 µg/mL; in [6] (+ 324 4 mg/L), 0.25 µg/mL; in test [6] (+ 324 + sulbactam, 4 mg/L each) it was 0.25 µg/mL; in test [6] (+ BRL427158 4 mg/L) it was 0.125 µg/mL; in test [6] (+ clavulanate 4 mg/L) it was “≦0.06 mg/L”. Further, the MIC of antibiotic in test [6] (antibiotic alone) is less than 0.06 µg/mL.
Take `NC(=O)OCC1C(NC(=O)C(=NOCc2cc(=O)c(O)cn2O)c2csc(N)n2)C(=O)N1OCC(=O)O` (stereo not shown) [Compound 41]: the MIC of antibiotic with Acinetobacter sp. J2 (setting [8]) came out at 16 µg/mL; in the test on Acinetobacter sp. J2 (antibiotic alone) it was 16 µg/mL; in [3] (setting [8]), 4 µg/mL; in test [3] (antibiotic alone), 4 µg/mL; in test [4] (setting [8]), 4 µg/mL; in [4] (antibiotic alone) it was 4 µg/mL. The MIC of antibiotic is 16 µg/mL with Enterobacter cloacae P99 (setting [8]); greater than 32 µg/mL with Enterobacter cloacae P99 (antibiotic alone); 0.5 µg/mL in [5] (setting [8]); greater than 32 µg/mL in [5] (antibiotic alone); 0.5 µg/mL with Serratia marcescens S6 (setting [8]); 1 µg/mL in the test with Serratia marcescens S6 (antibiotic alone). For the same compound, the MIC of antibiotic in test [6] (setting [8]) turned out to be 2 µg/mL; in test [6] (antibiotic alone), 1 µg/mL.
Consider `NC(=O)OCC1C(NC(=O)C(=NOCc2cc(=O)c(O)cn2O)c2nc(N)sc2Cl)C(=O)N1OS(=O)(=O)O` (stereo not shown) [Compound 47], for which the MIC of antibiotic in the test with Acinetobacter sp. J2 (setting [8]) was greater than 32 µg/mL; in the test on Acinetobacter sp. J2 (setting [9]) it was greater than 32 µg/mL; in the test on Acinetobacter sp. J2 (antibiotic alone), greater than 32 µg/mL; in [3] (setting [8]) it was 2 µg/mL; in [3] (setting [9]), 4 µg/mL; in [3] (antibiotic alone), 4 µg/mL. Also, the MIC of antibiotic in [4] (setting [8]) is 4 µg/mL; in test [4] (setting [9]), 8 µg/mL; in test [4] (antibiotic alone), 8 µg/mL; with Enterobacter cloacae P99 (setting [8]), 16 µg/mL; with Enterobacter cloacae P99 (setting [9]), 32 µg/mL; with Enterobacter cloacae P99 (antibiotic alone) it was greater than 32 µg/mL. The MIC of antibiotic in test [5] (setting [8]) was 4 µg/mL; in test [5] (setting [9]) it was 2 µg/mL; in test [5] (antibiotic alone), greater than 32 µg/mL; with Serratia marcescens S6 (setting [8]) it was 2 µg/mL; in the test with Serratia marcescens S6 (setting [9]), 2 µg/mL; in the test with Serratia marcescens S6 (antibiotic alone), 2 µg/mL. The MIC of antibiotic in [6] (setting [8]), in test [6] (setting [9]) and in [6] (antibiotic alone) was 1 µg/mL in each case.

The values above are taken from patent US9346799B2, “Useful combinations of monobactam antibiotics with beta-lactamase inhibitors” (Basilea Pharmaceutica AG, priority 2005, dated 2016).
